Values quoted from earlier work in patent US11730747B2, “Drink product and use thereof” (HYGIA PHARMACEUTICALS, LLC, priority 2013, dated 2023).
pEC50: −log10 of the molar value.

Legend:
JB6 cells = details: IP6 0.5-2 mM, three-dimensional growth in soft agar
PC-3 = PC-3 cells
large intestinal cancer = details: rats; treatment begun 5 months after carcinogenic induction with azoxymethane
[1] = system: human colon cancer cell lines
PI3K = details: lung adenocarcinoma cell line
bronchial dysplasia = details: smokers
pulmonary adenomas = details: diet containing 3% myo-inositol, fed beginning 1 week after exposure to benzo[a]pyrene

Row | Compound | inhibition of EGF or TPA-induced cell transformation (JB6 cells) | levels of integrin linked kinase 1 (ILK1) and cyclin D1 (PC-3) | levels of phosphorylated AKT and GSK3α/β (PC-3) | phosphorylation levels of the p85 subunit of PI3K at Tyr458 and phosphoinositide-dependent kinase-1 at Ser241 (PC-3) | large intestinal cancers (large intestinal cancer) | growth of human colon cancer cell lines in vitro [1] | PI3K activity (PI3K) | pEC50 (PI3K; read-out: median effective concentration (ECs) for PI3K inhibition) | reduction in the systolic and diastolic blood pressures (average) (bronchial dysplasia; 18 grams per day for 3 months) | rate of regression of preexisting dysplastic lesions (bronchial dysplasia; 18 grams per day for 3 months, versus 48%, P=0.014) | maximum tolerated dose (bronchial dysplasia; oral administration, dose escalation study for one month) | side effects (bronchial dysplasia; oral myo-inositol) | reduction of the number of pulmonary adenomas (pulmonary adenomas)
1 | O=P(O)(O)O[C@H]1[C@H](OP(=O)(O)O)[C@@H](OP(=O)(O)O)[C@H](OP(=O)(O)O)[C@@H](OP(=O)(O)O)[C@H]1OP(=O)(O)O [IP6, inositol-1,2,3,4,5,6-hexakisphosphate] | dose-dependent inhibition | strong decrease | reduced levels | reduced phosphorylation levels | significantly (p=0.02) reducing | inhibits growth | – | – | – | – | – | – | –
2 | O[C@H]1[C@H](O)[C@@H](O)[C@H](O)[C@@H](O)[C@H]1O [myoinositol] | – | – | – | – | – | – | dose-dependent decreases | 7.14 | 10 mm Hg | 91% | 18 grams per day | mild and mainly gastrointestinal in nature | 40%
